Reference: ChEMBL document CHEMBL1201862, “PubChem BioAssay data set” (2004)
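How tested: cells in 96-well plates exposed to compound for 48 hours at five concentrations. At the GI50, growth is halved.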 Calls of active or inactive are those of the source. Rule as the data show it: active = GI50 up to about 1.1 µM and inactive = higher.

Columns and labels:
Assay in all cases: DTP human tumour cell line panel, 48 h
A498 = tested on: A498
CCRF-CEM = tested on: CCRF-CEM
DU-145 = tested on: DU-145
EKVX = tested on: EKVX
HCC 2998 = tested on: HCC 2998
HOP-62 = tested on: HOP-62
HOP-92 = tested on: HOP-92
HT-29 = tested on: HT-29
KM12 = tested on: KM12
M14 = tested on: M14
MCF7 = tested on: MCF7
MDA-MB-231 = tested on: MDA-MB-231
Malme-3M = tested on: Malme-3M
NCI-H522 = tested on: NCI-H522
OVCAR-8 = tested on: OVCAR-8
RPMI-8226 = tested on: RPMI-8226
SK-MEL-2 = tested on: SK-MEL-2
SNB-75 = tested on: SNB-75
T47D = tested on: T47D
UACC-62 = tested on: UACC-62

Measured: GI50

CCc1nc2cc(/N=N/c3c(O)ccc4ccccc34)ccc2[nH]1
inactive: A498 21.5 µM | CCRF-CEM 3.47 µM | DU-145 17 µM | EKVX 19.1 µM | HCC 2998 14.6 µM | HOP-62 21.1 µM | HOP-92 20.5 µM | HT-29 19.4 µM | KM12 11.2 µM | M14 19.6 µM | MCF7 18.4 µM | MDA-MB-231 20.7 µM | Malme-3M 18.3 µM | NCI-H522 18.1 µM | OVCAR-8 14.5 µM | RPMI-8226 10.5 µM | SK-MEL-2 19.8 µM | SNB-75 20.6 µM | T47D 24.3 µM | UACC-62 18.2 µM
